# Numbers after ± are expanded uncertainties.
# Assay: mn = molality of the nth substance listed, in mol/kg
# Conditions: 101 kPa, Liquid; for speed of sound: Pulse-echo method
smiles,measurement,setting,value
CCCC[P+](CCCC)(CCCC)CCCC.[Br-] [tetrabutylphosphonium bromide] + CC(C)=O,mass density,"288.15 K, m1 = 0.009972",796.516 ± 0.24 kg/m3
same,mass density,"288.15 K, m1 = 0.01477",796.926 ± 0.24 kg/m3
same,mass density,"288.15 K, m1 = 0.01959",797.328 ± 0.24 kg/m3
same,mass density,"288.15 K, m1 = 0.02424",797.711 ± 0.24 kg/m3
same,mass density,"288.15 K, m1 = 0.02891",798.099 ± 0.24 kg/m3
same,mass density,"288.15 K, m1 = 0.03385",798.51 ± 0.24 kg/m3
same,mass density,"288.15 K, m1 = 0.04786",799.673 ± 0.24 kg/m3
same,mass density,"288.15 K, m1 = 0.0619",800.822 ± 0.24 kg/m3
same,mass density,"288.15 K, m1 = 0.07794",802.136 ± 0.24 kg/m3
same,mass density,"288.15 K, m1 = 0.09642",803.646 ± 0.24 kg/m3
same,mass density,"288.15 K, m1 = 0.123",805.822 ± 0.24 kg/m3
same,mass density,"288.15 K, m1 = 0.1559",808.487 ± 0.24 kg/m3
same,mass density,"288.15 K, m1 = 0.1912",811.381 ± 0.24 kg/m3
same,mass density,"288.15 K, m1 = 0.2209",813.828 ± 0.24 kg/m3
same,mass density,"288.15 K, m1 = 0.2576",816.813 ± 0.23 kg/m3
same,mass density,"288.15 K, m1 = 0.2914",819.596 ± 0.23 kg/m3
same,mass density,"293.15 K, m1 = 0.009972",790.843 ± 0.25 kg/m3
same,mass density,"293.15 K, m1 = 0.01477",791.257 ± 0.25 kg/m3
same,mass density,"293.15 K, m1 = 0.01959",791.666 ± 0.24 kg/m3
same,mass density,"293.15 K, m1 = 0.02424",792.056 ± 0.24 kg/m3
same,mass density,"293.15 K, m1 = 0.02891",792.447 ± 0.24 kg/m3
same,mass density,"293.15 K, m1 = 0.03385",792.86 ± 0.24 kg/m3
same,mass density,"293.15 K, m1 = 0.04786",794.037 ± 0.24 kg/m3
same,mass density,"293.15 K, m1 = 0.0619",795.195 ± 0.24 kg/m3
same,mass density,"293.15 K, m1 = 0.07794",796.525 ± 0.24 kg/m3
same,mass density,"293.15 K, m1 = 0.09642",798.046 ± 0.24 kg/m3
same,mass density,"293.15 K, m1 = 0.123",800.247 ± 0.24 kg/m3
same,mass density,"293.15 K, m1 = 0.1559",802.938 ± 0.24 kg/m3
same,mass density,"293.15 K, m1 = 0.1912",805.858 ± 0.24 kg/m3
same,mass density,"293.15 K, m1 = 0.2209",808.333 ± 0.24 kg/m3
same,mass density,"293.15 K, m1 = 0.2576",811.345 ± 0.24 kg/m3
same,mass density,"293.15 K, m1 = 0.2914",814.151 ± 0.24 kg/m3
same,speed of sound,"298.15 K, m1 = 0.009972",1161.1 ± 0.81 m/s
same,speed of sound,"298.15 K, m1 = 0.01959",1161.8 ± 0.81 m/s
same,speed of sound,"298.15 K, m1 = 0.03385",1162.7 ± 0.82 m/s
same,speed of sound,"298.15 K, m1 = 0.04786",1163.6 ± 0.82 m/s
same,speed of sound,"298.15 K, m1 = 0.0619",1164.5 ± 0.82 m/s
same,speed of sound,"298.15 K, m1 = 0.07794",1165.7 ± 0.82 m/s
same,speed of sound,"298.15 K, m1 = 0.09642",1166.8 ± 0.83 m/s
same,speed of sound,"298.15 K, m1 = 0.123",1168.4 ± 0.83 m/s
same,speed of sound,"298.15 K, m1 = 0.1559",1170.4 ± 0.84 m/s
same,speed of sound,"298.15 K, m1 = 0.1912",1172.7 ± 0.85 m/s
same,speed of sound,"298.15 K, m1 = 0.2209",1174.3 ± 0.85 m/s
same,speed of sound,"298.15 K, m1 = 0.2576",1176.6 ± 0.86 m/s
same,speed of sound,"298.15 K, m1 = 0.2914",1178.7 ± 0.87 m/s
same,mass density,"298.15 K, m1 = 0.009972",785.133 ± 0.25 kg/m3
same,mass density,"298.15 K, m1 = 0.01477",785.552 ± 0.25 kg/m3
same,mass density,"298.15 K, m1 = 0.01959",785.967 ± 0.25 kg/m3
same,mass density,"298.15 K, m1 = 0.02424",786.362 ± 0.25 kg/m3
same,mass density,"298.15 K, m1 = 0.02891",786.758 ± 0.25 kg/m3
same,mass density,"298.15 K, m1 = 0.03385",787.178 ± 0.25 kg/m3
same,mass density,"298.15 K, m1 = 0.04786",788.362 ± 0.25 kg/m3
same,mass density,"298.15 K, m1 = 0.0619",789.537 ± 0.25 kg/m3
same,mass density,"298.15 K, m1 = 0.07794",790.878 ± 0.25 kg/m3
same,mass density,"298.15 K, m1 = 0.09642",792.414 ± 0.25 kg/m3
same,mass density,"298.15 K, m1 = 0.123",794.64 ± 0.25 kg/m3
same,mass density,"298.15 K, m1 = 0.1559",797.356 ± 0.24 kg/m3
same,mass density,"298.15 K, m1 = 0.1912",800.306 ± 0.24 kg/m3
same,mass density,"298.15 K, m1 = 0.2209",802.798 ± 0.24 kg/m3
same,mass density,"298.15 K, m1 = 0.2576",805.845 ± 0.24 kg/m3
same,mass density,"298.15 K, m1 = 0.2914",808.679 ± 0.24 kg/m3
same,mass density,"303.15 K, m1 = 0.009972",779.385 ± 0.26 kg/m3
same,mass density,"303.15 K, m1 = 0.01477",779.806 ± 0.26 kg/m3
same,mass density,"303.15 K, m1 = 0.01959",780.225 ± 0.25 kg/m3
same,mass density,"303.15 K, m1 = 0.02424",780.624 ± 0.25 kg/m3
same,mass density,"303.15 K, m1 = 0.02891",781.026 ± 0.25 kg/m3
same,mass density,"303.15 K, m1 = 0.03385",781.451 ± 0.25 kg/m3
same,mass density,"303.15 K, m1 = 0.04786",782.648 ± 0.25 kg/m3
same,mass density,"303.15 K, m1 = 0.0619",783.836 ± 0.25 kg/m3
same,mass density,"303.15 K, m1 = 0.07794",785.191 ± 0.25 kg/m3
same,mass density,"303.15 K, m1 = 0.09642",786.74 ± 0.25 kg/m3
same,mass density,"303.15 K, m1 = 0.123",788.995 ± 0.25 kg/m3
same,mass density,"303.15 K, m1 = 0.1559",791.736 ± 0.25 kg/m3
same,mass density,"303.15 K, m1 = 0.1912",794.713 ± 0.25 kg/m3
same,mass density,"303.15 K, m1 = 0.2209",797.229 ± 0.25 kg/m3
same,mass density,"303.15 K, m1 = 0.2576",800.309 ± 0.25 kg/m3
same,mass density,"303.15 K, m1 = 0.2914",803.169 ± 0.25 kg/m3
same,mass density,"308.15 K, m1 = 0.009972",773.586 ± 0.26 kg/m3
same,mass density,"308.15 K, m1 = 0.01477",774.015 ± 0.26 kg/m3
same,mass density,"308.15 K, m1 = 0.01959",774.439 ± 0.26 kg/m3
same,mass density,"308.15 K, m1 = 0.02424",774.841 ± 0.26 kg/m3
same,mass density,"308.15 K, m1 = 0.02891",775.247 ± 0.26 kg/m3
same,mass density,"308.15 K, m1 = 0.03385",775.678 ± 0.26 kg/m3
same,mass density,"308.15 K, m1 = 0.04786",776.885 ± 0.26 kg/m3
same,mass density,"308.15 K, m1 = 0.0619",778.088 ± 0.26 kg/m3
same,mass density,"308.15 K, m1 = 0.07794",779.457 ± 0.26 kg/m3
same,mass density,"308.15 K, m1 = 0.09642",781.022 ± 0.26 kg/m3
same,mass density,"308.15 K, m1 = 0.123",783.255 ± 0.26 kg/m3
same,mass density,"308.15 K, m1 = 0.1559",786.072 ± 0.25 kg/m3
same,mass density,"308.15 K, m1 = 0.1912",789.077 ± 0.25 kg/m3
same,mass density,"308.15 K, m1 = 0.2209",791.622 ± 0.25 kg/m3
same,mass density,"308.15 K, m1 = 0.2576",794.734 ± 0.25 kg/m3
same,mass density,"308.15 K, m1 = 0.2914",797.619 ± 0.25 kg/m3
same,mass density,"313.15 K, m1 = 0.009972",767.735 ± 0.27 kg/m3
same,mass density,"313.15 K, m1 = 0.01477",768.169 ± 0.26 kg/m3
same,mass density,"313.15 K, m1 = 0.01959",768.597 ± 0.26 kg/m3
same,mass density,"313.15 K, m1 = 0.02424",769.006 ± 0.26 kg/m3
same,mass density,"313.15 K, m1 = 0.02891",769.416 ± 0.26 kg/m3
same,mass density,"313.15 K, m1 = 0.03385",769.85 ± 0.26 kg/m3
same,mass density,"313.15 K, m1 = 0.04786",771.075 ± 0.26 kg/m3
same,mass density,"313.15 K, m1 = 0.0619",772.29 ± 0.26 kg/m3
same,mass density,"313.15 K, m1 = 0.07794",773.675 ± 0.26 kg/m3
same,mass density,"313.15 K, m1 = 0.09642",775.257 ± 0.26 kg/m3
same,mass density,"313.15 K, m1 = 0.123",777.557 ± 0.26 kg/m3
same,mass density,"313.15 K, m1 = 0.1559",780.36 ± 0.26 kg/m3
same,mass density,"313.15 K, m1 = 0.1912",783.39 ± 0.26 kg/m3
same,mass density,"313.15 K, m1 = 0.2209",785.97 ± 0.26 kg/m3
same,mass density,"313.15 K, m1 = 0.2576",789.113 ± 0.26 kg/m3
same,mass density,"313.15 K, m1 = 0.2914",792.03 ± 0.26 kg/m3

# From the NIST ThermoML archive (doi:10.1021/je900888e)
